Assay results reported in PMC8160450, “GRK Inhibition Potentiates Glucagon-Like Peptide-1 Action” (Frontiers in Endocrinology, 2021).
No end group written: not given here.

Columns and labels:
Type in all cases: cell-based
[1] = system: mouse pancreatic islets; test: Glucose stimulated insulin secretion (GSIS) in isolated mouse pancreatic islets; details: 20 nM GLP-1, 2 mM glucose
Protocol: Islets were isolated from mouse pancreas by collagenase digestion ([20]). The collagenase was dissolved in Hanks’ balanced salt solution (Invitrogen, Carlsbad, CA) containing 10 µg/ml DNase I (Roche Diagnostics, Indianapolis, IN) and 0.2% BSA, and was subsequently injected into the common bile duct. The pancreas was removed and incubated at 37°C for 20 min and washed three times with Hanks’ balanced salt solution and islets were collected under a microscope. Purified islets were used after an overnight incubation in RPMI 1640 medium containing 5.5 mmol/l glucose and 10% fetal bovine serum in a humidified atmosphere containing 5% CO2/95% air at 37°C. A group of 7 islets was preincubated in Krebs Ringer bicarbonate buffer (KRBH) containing 0.2% BSA and 2 mM glucose for 40 min at 37°C. The indicated concentration of GRK compounds or vehicle (DMSO) were added. The final DMSO concentration was 0.1%. After 30 min incubation at 37°C, 2 mM or 10 mM glucose along with 20 nM GLP-1 were added to wells. After further incubation for 1 hour at 37°C with shaking, culture supernatant was collected, and insulin was detected using the Insulin High Range Assay HTRF Kit according to the manufacturer’s instructions (Cisbio, Bedford, MA).

[2] = system: INS-1 832/13 cells; test: GLP-1 mediated insulin secretion in INS-1 832/13 cells; details: GLP-1 at 10 nM, 5 mM glucose
Protocol: INS-1 832/13 cells were cultured in medium composed of RPMI 1640 medium supplemented with 10% fetal bovine serum, 50 IU/mL penicillin, 50 mg/L streptomycin, 10 mM HEPES, 2 mM L-glutamine, 1 mM sodium pyruvate, and 50 µM beta-mercaptoethanol. Cells were split twice a week, grown in a 37°C incubator under a humidified atmosphere containing 5% CO2 and plated at (60,000 cells/well) in a 96-well plate, two days prior to the experiment. Cells were washed twice with glucose-free Krebs-Ringer Bicarbonate buffer (KRB) (116 mM NaCl, 1.8 mM CaCl2, 0.8 mM MgSO4, 5.4 mM KCl, 1 mM NaH2PO4, 26 mM NaHCO3, and 0.2% fatty-acid free BSA, pH 7.4) followed by preincubation for 1 h at 37°C in glucose-free KRB and the indicated concentration of GRK compounds or vehicle (DMSO) were added. The final DMSO concentration was 0.1%. After 30 min incubation at 37°C, 2 mM or 5 mM glucose and 10 nM GLP-1 were added to the wells for a final volume of 200 μL. After further incubation for 1 hour at 37°C, 20 μL of the culture supernatant was diluted 1:15 in the Dilution Buffer provided in the Insulin High Range Assay HTRF Kit (Cisbio, Bedford, MA). Insulin was detected using the Insulin High Range Assay HTRF Kit according to the manufacturer’s instructions (Cisbio, Bedford, MA). All results were obtained in 5 replicates.

[3] = system: β-arrestin recruitment to the GLP-1R; test: GLP-1 mediated β-arrestin recruitment assay (PathHunter eXpress GLP1R CHO-K1 β-Arrestin cells); details: CHO-K1 cells stably expressing human GLP-1 receptor and β-arrestin
Protocol: PathHunter® eXpress GLP1R CHO-K1 β-Arrestin cells were plated at 6000 cells/well in a 384-well, PDL, white and opaque plate in F12 medium containing 10% FBS, 0.3 mg/ml hygromycin, and 0.8 mg/ml G418. The plate was incubated for two days in a humidified incubator at 37°C and 5% CO2 prior to the experiment. On the day of the exeperiment, the cells were washed once with the Assay Buffer (HBSS with calcium and magnesium, 20 mM Hepes, and 0.1% fatty-acid free BSA) followed by a 10 minute preincubation with GRK inhibitors or vehicle (DMSO) at the indicated concentrations. The final DMSO concentration was 0.1%. GLP-1 was added to the indicated concentrations, and incubation was continued for an additional 90 minutes at 37°C. The detection reagent was then added the cells, followed by a 60 minute incubation at the room temperature. The plate was read on MicroBeta LumiJet (PerkinElmer, Waltham, MA). In this cellular system, the GLP-1 receptor is fused in frame with the small enzyme fragment of ProLinkTM and co-expressed in cells expressing a fusion of the larger deletion mutant of β-gal, also called enzyme acceptor. […] The cellular β-gal enzyme activity is measured using chemiluminescent detection reagents.

Human GLP-1 (7-36) amide (HAEGTFTSDVSSYLEGQAAKEFIAWLVKGR-NH2; UniProt P01275 98-127, looked up, fragment)
insulin secretion at 2 mM glucose, GLP-1 alone [1]: did not stimulate insulin secretion
insulin secretion [2]: stimulated insulin secretion
EC80 for increase of cellular β-gal enzyme activity (β-arrestin recruitment) [3]: approximately 100 nM
